Source: PubChem BioAssay AID2060624 (Molecular Pharmacology Branch, DTP, NCI, 2025)

System: 217524-143-R1-J4-PDC spheroids with HUVEC/MSC, viability
Assay: Anticancer human tumor 217524-143-R1-J4-PDC patient-derived pancreatic carcinoma cell line growth inhibition [CLK]
Conditions: for IC50: curve of first compound; for viability, T/C: stronger effect = lower value
Outline: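 Multi-cell-type spheroids combined patient-derived tumor cells with HUVEC endothelial cells and human mesenchymal stem cells. Paired agents were dosed in half-log steps down from about clinical Cmax, or from 10 microM where Cmax was unknown.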

[1] = second compound 0.0316 µM, first compound 0.0316 µM
[2] = second compound 0.0316 µM, first compound 0.1 µM
[3] = second compound 0.0316 µM, first compound 0.316 µM
[4] = second compound 0.0316 µM, first compound 1 µM
[5] = second compound 0.0316 µM, first compound 3.16 µM
[6] = second compound 0.0316 µM, first compound 10 µM
[7] = second compound 0.1 µM, first compound 0.0316 µM
[8] = second compound 0.1 µM, first compound 0.1 µM
[9] = second compound 0.1 µM, first compound 0.316 µM
[10] = second compound 0.1 µM, first compound 1 µM
[11] = second compound 0.1 µM, first compound 3.16 µM
[12] = second compound 0.1 µM, first compound 10 µM
[13] = second compound 0.316 µM, first compound 0.0316 µM
[14] = second compound 0.316 µM, first compound 0.1 µM
[15] = second compound 0.316 µM, first compound 0.316 µM
[16] = second compound 0.316 µM, first compound 1 µM
[17] = second compound 0.316 µM, first compound 3.16 µM
[18] = second compound 0.316 µM, first compound 10 µM
[19] = second compound 1 µM, first compound 0.0316 µM
[20] = second compound 1 µM, first compound 0.1 µM
[21] = second compound 1 µM, first compound 0.316 µM
[22] = second compound 1 µM, first compound 1 µM
[23] = second compound 1 µM, first compound 3.16 µM
[24] = second compound 1 µM, first compound 10 µM
[25] = second compound 3.16 µM, first compound 0.0316 µM
[26] = second compound 3.16 µM, first compound 0.1 µM
[27] = second compound 3.16 µM, first compound 0.316 µM
[28] = second compound 3.16 µM, first compound 1 µM
[29] = second compound 3.16 µM, first compound 3.16 µM
[30] = second compound 3.16 µM, first compound 10 µM
[31] = second compound 10 µM, first compound 0.0316 µM
[32] = second compound 10 µM, first compound 0.1 µM
[33] = second compound 10 µM, first compound 0.316 µM
[34] = second compound 10 µM, first compound 1 µM
[35] = second compound 10 µM, first compound 3.16 µM
[36] = second compound 10 µM, first compound 10 µM
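Note: spheroids exposed to agents for seven days before reading.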
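Throughout, for viability, T/C: 100% = DMSO vehicle control viability.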

COc1ccc([C@@H](O)c2cc(-c3ncnc4cc(N5CCOCC5)ccc34)c(F)cc2Cl)nn1 + CN1CCN(c2cc(C(=O)Nc3cc4cc(-c5cnn(C)c5)ccc4cn3)ccn2)CC1
IC50 (second compound 0.0316 µM): 285 nM | IC50 (second compound 0.1 µM): < 31.6 nM | IC50 (second compound 0.316 µM): < 31.6 nM | IC50 (second compound 1 µM): < 31.6 nM | IC50 (second compound 3.16 µM): < 31.6 nM | IC50 (second compound 10 µM): < 31.6 nM | viability, T/C [1]: 70.4% | viability, T/C [2]: 59.8% | viability, T/C [3]: 46.9% | viability, T/C [4]: 38.5% | viability, T/C [5]: 26.1% | viability, T/C [6]: 10.6% | viability, T/C [7]: 39.6% | viability, T/C [8]: 50.7% | viability, T/C [9]: 29.8% | viability, T/C [10]: 24.4% | viability, T/C [11]: 16.2% | viability, T/C [12]: 10% | viability, T/C [13]: 18.1% | viability, T/C [14]: 18.4% | viability, T/C [15]: 15% | viability, T/C [16]: 13.4% | viability, T/C [17]: 10.7% | viability, T/C [18]: 6.07% | viability, T/C [19]: 1.28% | viability, T/C [20]: 0.91% | viability, T/C [21]: 1.1% | viability, T/C [22]: 0.93% | viability, T/C [23]: 0.91% | viability, T/C [24]: 0.91% | viability, T/C [25]: 0.52% | viability, T/C [26]: 0.54% | viability, T/C [27]: 0.73% | viability, T/C [28]: 0.44% | viability, T/C [29]: 1.02% | viability, T/C [30]: 1.29% | viability, T/C [31]: 0.08% | viability, T/C [32]: 0.12% | viability, T/C [33]: 0.21% | viability, T/C [34]: 0.18% | viability, T/C [35]: 0.22% | viability, T/C [36]: 0.36%

COc1cccc2c1C(=O)c1c(O)c3c(c(O)c1C2=O)CC(O)(C(=O)CO)CC3OC1CC(N)C(O)C(C)O1 (stereo not given) + CN1CCN(c2cc(C(=O)Nc3cc4cc(-c5cnn(C)c5)ccc4cn3)ccn2)CC1
IC50 (second compound 0.0316 µM): < 31.6 nM | IC50 (second compound 0.1 µM): < 31.6 nM | IC50 (second compound 0.316 µM): < 31.6 nM | IC50 (second compound 1 µM): < 31.6 nM | IC50 (second compound 3.16 µM): < 31.6 nM | IC50 (second compound 10 µM): < 31.6 nM | viability, T/C [1]: 31.5% | viability, T/C [2]: 22.6% | viability, T/C [3]: 18.3% | viability, T/C [4]: 12.8% | viability, T/C [5]: 3.21% | viability, T/C [6]: 1.12% | viability, T/C [7]: 23.1% | viability, T/C [8]: 19.4% | viability, T/C [9]: 13.4% | viability, T/C [10]: 11.9% | viability, T/C [11]: 2.23% | viability, T/C [12]: 1.21% | viability, T/C [13]: 15.5% | viability, T/C [14]: 11.4% | viability, T/C [15]: 6.94% | viability, T/C [16]: 3.93% | viability, T/C [17]: 1.19% | viability, T/C [18]: 1.44% | viability, T/C [19]: 0.79% | viability, T/C [20]: 1.09% | viability, T/C [21]: 0.55% | viability, T/C [22]: 0.99% | viability, T/C [23]: 1.55% | viability, T/C [24]: 2.46% | viability, T/C [25]: 0.79% | viability, T/C [26]: 0.89% | viability, T/C [27]: 0.61% | viability, T/C [28]: 0.96% | viability, T/C [29]: 1.17% | viability, T/C [30]: 0.55% | viability, T/C [31]: 0.18% | viability, T/C [32]: 0.12% | viability, T/C [33]: 0.13% | viability, T/C [34]: 0.13% | viability, T/C [35]: 0.11% | viability, T/C [36]: 0.12%

C=CC(=O)N1CCN(c2nc(=O)n(-c3c(C)ccnc3C(C)C)c3nc(-c4c(O)cccc4F)c(F)cc23)C(C)C1 (stereo not given) + CNC(=O)c1ccc(Nc2nc(OC3CCCC3)c3c(-c4ccc5nc(C)oc5c4)c[nH]c3n2)c(OC)c1
IC50 (second compound 0.0316 µM): > 10000 nM | IC50 (second compound 0.1 µM): < 31.6 nM | IC50 (second compound 0.316 µM): < 31.6 nM | IC50 (second compound 1 µM): < 31.6 nM | IC50 (second compound 3.16 µM): < 31.6 nM | IC50 (second compound 10 µM): < 31.6 nM | viability, T/C [1]: 99.7% | viability, T/C [2]: 96.5% | viability, T/C [3]: 82.2% | viability, T/C [4]: 102% | viability, T/C [5]: 123% | viability, T/C [6]: 118% | viability, T/C [7]: 44.1% | viability, T/C [8]: 47.4% | viability, T/C [9]: 41.4% | viability, T/C [10]: 49.9% | viability, T/C [11]: 58.5% | viability, T/C [12]: 55.8% | viability, T/C [13]: 34.6% | viability, T/C [14]: 31.3% | viability, T/C [15]: 50.8% | viability, T/C [16]: 41.4% | viability, T/C [17]: 49% | viability, T/C [18]: 43.4% | viability, T/C [19]: 24.7% | viability, T/C [20]: 27.6% | viability, T/C [21]: 32.8% | viability, T/C [22]: 39.2% | viability, T/C [23]: 36.4% | viability, T/C [24]: 30% | viability, T/C [25]: 24.9% | viability, T/C [26]: 29.8% | viability, T/C [27]: 31% | viability, T/C [28]: 30.2% | viability, T/C [29]: 36.8% | viability, T/C [30]: 27.9% | viability, T/C [31]: 27.9% | viability, T/C [32]: 27.9% | viability, T/C [33]: 31.7% | viability, T/C [34]: 31.9% | viability, T/C [35]: 34.2% | viability, T/C [36]: 29.1%

CCCS(=O)(=O)Nc1ccc(F)c(C(=O)c2c[nH]c3ncc(-c4ccc(Cl)cc4)cc23)c1F + CNC(=O)c1ccc(Nc2nc(OC3CCCC3)c3c(-c4ccc5nc(C)oc5c4)c[nH]c3n2)c(OC)c1
IC50 (second compound 0.0316 µM): > 10000 nM | IC50 (second compound 0.1 µM): < 31.6 nM | IC50 (second compound 0.316 µM): < 31.6 nM | IC50 (second compound 1 µM): < 31.6 nM | IC50 (second compound 3.16 µM): < 31.6 nM | IC50 (second compound 10 µM): < 31.6 nM | viability, T/C [1]: 76.2% | viability, T/C [2]: 83% | viability, T/C [3]: 99.1% | viability, T/C [4]: 130% | viability, T/C [5]: 139% | viability, T/C [6]: 57.1% | viability, T/C [7]: 40.1% | viability, T/C [8]: 49.2% | viability, T/C [9]: 49.9% | viability, T/C [10]: 67.3% | viability, T/C [11]: 76.6% | viability, T/C [12]: 40.1% | viability, T/C [13]: 41.5% | viability, T/C [14]: 38.8% | viability, T/C [15]: 45.6% | viability, T/C [16]: 58.1% | viability, T/C [17]: 59.2% | viability, T/C [18]: 31.2% | viability, T/C [19]: 35.1% | viability, T/C [20]: 35.1% | viability, T/C [21]: 46.9% | viability, T/C [22]: 45% | viability, T/C [23]: 49.3% | viability, T/C [24]: 24.1% | viability, T/C [25]: 32.1% | viability, T/C [26]: 31.6% | viability, T/C [27]: 34.6% | viability, T/C [28]: 47.6% | viability, T/C [29]: 42.1% | viability, T/C [30]: 17.6% | viability, T/C [31]: 29.6% | viability, T/C [32]: 26.5% | viability, T/C [33]: 38.7% | viability, T/C [34]: 34.9% | viability, T/C [35]: 42% | viability, T/C [36]: 18%

COC1C=CCC(C)C(C)S(=O)(=O)NC(=O)c2ccc3c(c2)N(CC2CCC21)CC1(CCCc2cc(Cl)ccc21)CO3 (stereo not given) + CNC(=O)c1ccc(Nc2nc(OC3CCCC3)c3c(-c4ccc5nc(C)oc5c4)c[nH]c3n2)c(OC)c1
IC50 (second compound 0.0316 µM): 7690 nM | IC50 (second compound 0.1 µM): < 31.6 nM | IC50 (second compound 0.316 µM): < 31.6 nM | IC50 (second compound 1 µM): < 31.6 nM | IC50 (second compound 3.16 µM): < 31.6 nM | IC50 (second compound 10 µM): < 31.6 nM | viability, T/C [1]: 83.2% | viability, T/C [2]: 91.3% | viability, T/C [3]: 95.8% | viability, T/C [4]: 114% | viability, T/C [5]: 108% | viability, T/C [6]: 35.6% | viability, T/C [7]: 46.6% | viability, T/C [8]: 43.9% | viability, T/C [9]: 72.9% | viability, T/C [10]: 75.3% | viability, T/C [11]: 91.2% | viability, T/C [12]: 33.1% | viability, T/C [13]: 34.2% | viability, T/C [14]: 38.8% | viability, T/C [15]: 39.4% | viability, T/C [16]: 29.6% | viability, T/C [17]: 31.9% | viability, T/C [18]: 33.7% | viability, T/C [19]: 30.1% | viability, T/C [20]: 29.3% | viability, T/C [21]: 27.4% | viability, T/C [22]: 22.1% | viability, T/C [23]: 20.9% | viability, T/C [24]: 24.2% | viability, T/C [25]: 26.9% | viability, T/C [26]: 25.1% | viability, T/C [27]: 22.3% | viability, T/C [28]: 20.6% | viability, T/C [29]: 23.5% | viability, T/C [30]: 23.9% | viability, T/C [31]: 29.8% | viability, T/C [32]: 21% | viability, T/C [33]: 17.9% | viability, T/C [34]: 18.5% | viability, T/C [35]: 17.5% | viability, T/C [36]: 22.3%
